This test in a line: Inhibition of [3H](+)-pentazocine binding to sigma receptor of guinea pig brain.

Among the data in BindingDB's records for doi:10.1021/jm00045a022 (National Institute of Diabetes and Digestive and Kidney …, 1994) are Ki values, retold here.

For orientation: Ki means the equilibrium dissociation constant of an inhibitor or competing ligand from its target. Consider `COc1cccc([C@]23CCN(C)[C@H](CC(=O)C2)C3)c1`, for which the affinity, expressed as Ki, was 0.762 µM. `C[N+]1(C)CCC2(c3cccc(O)c3)CC(=O)C(=Cc3ccccc3)C1C2` (configuration not stated) [5-(3-Hydroxy-phenyl)-2,2-dimethyl-7-oxo-8-[1-phenyl-meth-(E)-ylidene]-2-azonia-bicyclo[3.3.1]nonane; iodide] gave a Ki of 5.4 µM.
